Reference: the supplement of paper PMC9386025

Columns and labels:
Experiment in all cases: drug sensitivity score (DSS) (DSS (dimensionless)); higher = more sensitive (stronger drug response)
FIMM-PDC4 = patient-derived ovarian cancer cells; details: genetic perturbation: none (patient-derived cell culture)
Outline: (§1)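 Cells, either patient-derived cultures or ovarian cancer cell lines given 100 ng/ml doxycycline for no less than three days to induce shRNA, went into 384-well plates at 1 000 – 1 500 per well over drugs pre-plated in five concentrations across a 10,000-fold range. The plates were held for three days at 37 °C with 5.0 % CO2. Cell viability was then taken from CellTiter-Glo luminescence on a PHERAstar FS. For each drug, a drug sensitivity score from its dose-response curve was obtained by a method described earlier.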

JHOS2 = test system: JHOS2
Outline: as §1

FIMM-PDC2 = patient-derived ovarian cancer cells; details: genetic perturbation: none (patient-derived cell culture)
Outline: as §1

FIMM-PDC1 = patient-derived ovarian cancer cells; details: genetic perturbation: none (patient-derived cell culture)
Outline: as §1

OVSAHO = test system: OVSAHO
Outline: as §1

FIMM-PDC6 = patient-derived ovarian cancer cells; details: genetic perturbation: none (patient-derived cell culture)
Outline: as §1

Kuramochi = test system: Kuramochi
Outline: as §1

FIMM-PDC5 = patient-derived ovarian cancer cells; details: genetic perturbation: none (patient-derived cell culture)
Outline: as §1

FIMM-PDC3 = patient-derived ovarian cancer cells; details: genetic perturbation: none (patient-derived cell culture)
Outline: as §1

FIMM-PDC7 = patient-derived ovarian cancer cells; details: genetic perturbation: none (patient-derived cell culture)
Outline: as §1

[1] = genetic perturbation: DOX-induced PTK7 shRNA knockdown
[2] = genetic perturbation: DOX-induced control shRNA

SMILES | drug sensitivity score (FIMM-PDC4) | drug sensitivity score (JHOS2; [1]) | drug sensitivity score (JHOS2; [2]) | drug sensitivity score (FIMM-PDC2) | drug sensitivity score (FIMM-PDC1) | drug sensitivity score (OVSAHO; [1]) | drug sensitivity score (OVSAHO; [2]) | drug sensitivity score (FIMM-PDC6) | drug sensitivity score (Kuramochi; [1]) | drug sensitivity score (Kuramochi; [2]) | drug sensitivity score (FIMM-PDC5) | drug sensitivity score (FIMM-PDC3) | drug sensitivity score (FIMM-PDC7)
CC(C)[C@@H](CS(=O)(=O)C(C)C)N1C(=O)[C@@](C)(CC(=O)O)C[C@H](c2cccc(Cl)c2)[C@H]1c1ccc(Cl)cc1 [AMG-232] | 7.1 | < 0 | < 0 | < 0 | < 0 | < 0 | < 0 | 14.2 | < 0 | < 0 | 20.3 | < 0 | 15
CN[C@@H](C)C(=O)N[C@H]1CN(C(=O)CC(C)C)CC[C@H]2CC[C@@H](C(=O)NC(c3ccccc3)c3ccccc3)N2C1=O [AT-406] | 0.9 | 16.5 | 10.2 | 10.5 | 7.9 | 4.3 | < 0 | 5.3 | 1.1 | 0.3 | 1.5 | 10.8 | 0.6
C=CCn1c(=O)c2cnc(Nc3ccc(N4CCN(C)CC4)cc3)nc2n1-c1cccc(C(C)(C)O)n1 [AZD1775] | 10.4 | 8.6 | 8.3 | 12.9 | 21.6 | 16.3 | 9.6 | 4 | 10.3 | 9.9 | 19 | 17 | 8.8
C[C@@H]1COCCN1c1cc(C2([S@](C)(=N)=O)CC2)nc(-c2cc[nH]c3nccc2-3)n1 [AZD6738] | 8.7 | 6 | 3.6 | 9.5 | 12.7 | 6.2 | 5.5 | 11 | 6.5 | 4.5 | 10.4 | 13 | 8.6
O=C1CCc2c(Oc3ccc4c(c3)[C@@H]3[C@H](O4)[C@H]3c3nc4cc(C(F)(F)F)ccc4[nH]3)ccnc2N1 [BGB-283] | 7.7 | 1.8 | 6.4 | 3.4 | 1.05 | 2.4 | 4 | 7.3 | 3.6 | 1.7 | 10.4 | 4.1 | 5.8
Nc1nc2[nH]cnc2c(=S)[nH]1 [Thioguanine] | 6.6 | 1.9 | 1 |  | 5.75 | 4.9 | 8.1 | 2.9 | 9.75 | 7 | 6.4 | < 0 | 4.7
CC[C@@]1(O)C(=O)OCc2c1cc1n(c2=O)Cc2cc3c(CN(C)C)c(O)ccc3nc2-1 [Topotecan] | 7.8 | 10.5 | 11.5 |  | 10.3 | 8.7 | 7.5 | 12.8 | 6.85 | 6.4 | 14.4 | 12.4 | 12.2
CC(C)C[C@@H](C(=O)N[C@H](C(=O)OC1CCCC1)c1ccccc1)[C@H](O)C(=O)NO [Tosedostat] | 9.5 | 29.8 | 14.2 |  | 12.6 | 3.1 | 6.4 | 11.1 | 0.75 | 0.7 | 12.1 | 14.9 | 6.4
Cc1cc(Nc2cc(N3CCN(C)CC3)nc(Sc3ccc(NC(=O)C4CC4)cc3)n2)n[nH]1 [Tozasertib] | 5.7 | 4.1 | 4.3 |  | 2.9 | 3.9 | 1.9 | 1.6 | 4.2 | 2.4 | 6.2 | 4.2 | 3.7
CC(=O)Nc1cccc(-n2c(=O)n(C3CC3)c(=O)c3c(Nc4ccc(I)cc4F)n(C)c(=O)c(C)c32)c1 [Trametinib] | 13 | 1.6 | 12.5 |  | 0.75 | 10.6 | 7.3 | 10.3 | 8.9 | 4.5 | 17.2 | 4.8 | 9
Nc1cc(F)ccc1NC(=O)c1ccc(CNC(=O)/C=C/c2cccnc2)cc1 [Tucidinostat] | 3.5 | 2 | 2.1 |  | 5.9 | 6.5 | 2.1 | 6.3 | 6.65 | 1.5 | 7.3 | 7.7 | 7.4
CN[C@@H]1C[C@H]2O[C@@](C)([C@@H]1OC)n1c3ccccc3c3c4c(c5c6ccccc6n2c5c31)C(=O)N[C@H]4O [UCN-01] | 26.4 | 21.2 | 21.5 |  | 26.5 | 24.7 | 15.2 | 24 | 12.3 | 16.2 | 29.6 | 22.2 | 28.4
CC(C)Nc1cc(-c2c[nH]c(C(=O)N[C@H](CO)c3cccc(Cl)c3)c2)c(Cl)cn1 [Ulixertinib] | 13.1 | 2.8 | 6.8 |  | 0.15 | 7.3 | 5 | 12.3 | 10.2 | 3.3 | 14.3 | 6.4 | 12
